Series [1] in a line: Pharmacokinetics (plasma concentrations after oral dose). Type of series: in vivo, NOD-SCID mice. The conditions noted are these: single p.o. dose. The text has this: (A) Chemical structures of BLU2256. […]
family members. Error bars represent SD of at least duplicate independent experiments. (D) NanoBret assessment of BLU2256 target engagement in indicated CDK complexes expressed in HEK-293 cells. Error bars represent SD of at least duplicate independent experiments. (E) Dose-response curve for pRb T821/826 […]
Error bars represent SD of at least duplicate independent experiments. (F) Dose-response curve for pLamin S22 inhibition by BLU1851 in OVCAR-3 and COV644 cells. Error bars represent SD of duplicate independent experiments. (G) Do se -response curves in MCF-7, OVCAR-3 cells. Cells were treated with a 10- point dose response of indicated compounds and incubated for 5 days before CyQuant assay was performed. […]
Contemporaneously, cells were transfected with a 3X-FLAG donor plasmid plus a plasmid containing Cas9 and a single guide RNA (sgRNA), scramble control (sgScr), or an sgRNA targeting beta- actin (sgACTB). […] The percent body weight change is calculated by normalizing to day 0 per treatment group. […] (M) Quantification of Western blot for pRb S807/811 normalized individually to actin and then to vehicle group to calculate % inhibition. […]
(N) Relative body weight over treatment time. The percent body weight change is calculated by normalizing to day 0 per treatment group. […] The percent body weight change is calculated by normalizing to day 0 per treatment group. […]

For series [2], the target named is T1, CDK7/CycH1 (Homo sapiens, UniProt P50613).
T1 construct: expressed in transfected cells; host or cells: HEK293
Briefly: NanoBRET target engagement assay. The format is binding. To be noted: HEK-293T cells transfected with CDK complex. The procedure: HEK293 cells were prepared to a final concentration of 100 000 cells/ml in 1% fetal bovine serum (FBS) Opti-MEM. Transfection mixtures were prepared with 1 μg of plasmid encoding NanoLuc-fused CDK and 9 μg of plasmid encoding cyclin, diluted in 1 ml Opti-MEM. FuGENE HD (Promega) was added to transfection mixture at a ratio of 30 μl/1 ml. After liposome formation, the lipid:DNA complex was added at a 1:20 ratio to HEK293 cells in suspension. Cells were plated in 384-well tissue culture plates and incubated overnight (20–30 h) at 37°C/5% CO2. Compounds were prepared from DMSO stock solutions and added to cell plates with a final top concentration of 10 000 nM. NanoBRET tracer solution was prepared from 100X tracer solution. For CDK1/cyclin B1, CDK9/cyclin T1, and CDK2/cyclin E1 assays, tracer K10 was used at a final concentration of 0.5 μM, 0.250 μM, and 0.125 μM, respectively. For CDK4/cyclin D1, and CDK6/cyclin D3, tracer K7 was used at a final concentration of 0.0625 μM. For CDK7/cyclin H1, tracer K7 was used at a final concentration of 0.5 μM. The plate was incubated at 37°C/5% CO2 for 2 h. NanoBRET substrate solution was prepared 15 min prior to the assay endpoint using serum-free OptiMEM. […] The plate was then shaken and read using the Perkin Elmer Envision plate reader. The donor emission was measured at 450 nm, followed by acceptor emission at 610 nm. […]
For orientation: Bioluminescence resonance energy transfer reports proximity on the nanometre scale.

Series [3] relates to MCF-7 cells. Briefly: CyQuant proliferation assay. Type of series: cell-based. The conditions noted are these: proliferation, 5 days, CyQuant; mean of two independent replicates; read-out: MCF-7 IC50. The procedure: (§1) OVCAR-3, COV644, or MCF-7 cells were seeded at 1000 cells/well in 384-well black, clear bottom plates and allowed to adhere overnight at 37°C/5% CO2. The following day, cells were treated with compound in a 10-point dose response, 1:4 dilutions. After 5 days of incubation, CyQuant Direct Proliferation Assay was performed according to the manufacturer's instructions. Data were processed with GraphPad Prism using a four-parameter fit to calculate IC50.

In series [4] the test system is OVCAR-3 xenografts. Briefly: OVCAR-3 xenograft tumor growth inhibition. Type of series: in vivo, NOD-SCID mice. The procedure:
Female NOD-SCID mice were purchased from Shanghai Lingchang BioTech Co., Ltd at 6–8 weeks old. Mice were housed in solid bottom polycarbonate ventilated cages at a temperature of 20–26°C in 40–70% humidity. Mice were kept on a 12-h light,
Twelve-hour dark cycle with regularly changed 100% filtered air. Municipal water and rodent diet were provided ad libitum. The general health of the animals was monitored through gross observation, regular body weight measurement, and monitoring of food and water intake. All procedures related to animal handling, care, and treatment were performed according to the protocol approved by the Institutional Animal Care and Use Committee of Shanghai Chempartner following the guidance of the Association for Assessment and Accreditation of Laboratory Animal Care (AAALAC).
OVCAR-3 cells were passaged through mice once, and a cell line was rederived from the tumor, named ‘T2A.’ OVCAR-3 T2A cells were cultured in RPMI 1640 media supplemented with 20% FBS and 0.01 mg/ml insulin. To establish the OVCAR-3 xenograft model, 6 × 10^6 cells per mouse were implanted subcutaneously into the right hind flank of NOD-SCID female mice. Cells were suspended in 50% Matrigel and 50% RPMI 1640 media serum free media prior to implantation.
In OVCAR-3 tumor growth inhibition studies, animals were randomized and treatment began when tumors reached ∼200 mm^3 in size (n = at least eight/group). […] Etoposide was prepared in 5% DMSO + 40% PEG300 + 5%Tween 80 + 50%dd water and dosed intraperitoneally QD at 1.25 mg/kg for 3 days for each week of the study. Olaparib was prepared in 10% HP-ß-CD in water and dosed intraperitoneally QD at 50 mg/kg. Tumor sizes and body weight were measured twice weekly. Tumor sizes were measured in two dimensions using a caliper, and the volume (mm^3) was calculated using the formula: V = 0.5 a x b^2 where a and b are the long and short diameters of the tumor, respectively.

Series [5] concerns the target CDK7/CycH1/MNAT1 (Homo sapiens, UniProt P50613). Briefly: ATP-competition caliper enzyme assay. Type of series: biochemical. To be noted: 1 mM ATP.
For series [6], the system named is OVCAR-3 cells. Briefly: CyQuant proliferation assay. Type of series: cell-based, human. To be noted: proliferation, 5 days, mean of two independent replicates. As for the experimental part: as §1
Series [7] concerns kinases tested (n = 468). Briefly: KINOMEscan kinome selectivity. Type of series: binding. The conditions noted are these: fraction of kinases with <10% of control at 3 μM among 468 kinases tested.

Chain of CDK7/CycH1/MNAT1 (P50613 whole entry): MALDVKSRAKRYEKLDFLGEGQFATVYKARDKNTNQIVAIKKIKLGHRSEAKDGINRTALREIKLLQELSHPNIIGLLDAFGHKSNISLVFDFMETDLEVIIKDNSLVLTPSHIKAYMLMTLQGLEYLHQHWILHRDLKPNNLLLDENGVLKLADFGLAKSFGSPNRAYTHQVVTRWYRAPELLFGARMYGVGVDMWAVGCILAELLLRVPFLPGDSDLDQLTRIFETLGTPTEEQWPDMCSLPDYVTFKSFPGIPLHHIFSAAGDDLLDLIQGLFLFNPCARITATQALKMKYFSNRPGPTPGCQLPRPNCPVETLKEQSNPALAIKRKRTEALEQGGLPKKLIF
Chain of CDK7/CycH1/MNAT1 (P51946 whole entry partner): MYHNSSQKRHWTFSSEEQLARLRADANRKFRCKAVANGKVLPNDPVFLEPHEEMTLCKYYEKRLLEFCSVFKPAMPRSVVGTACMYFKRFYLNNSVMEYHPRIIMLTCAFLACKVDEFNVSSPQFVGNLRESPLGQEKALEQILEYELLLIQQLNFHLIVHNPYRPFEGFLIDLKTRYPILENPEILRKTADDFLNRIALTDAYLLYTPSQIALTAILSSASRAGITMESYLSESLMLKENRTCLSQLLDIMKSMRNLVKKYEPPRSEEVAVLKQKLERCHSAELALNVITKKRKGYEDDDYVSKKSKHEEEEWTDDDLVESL
Chain of CDK7/CycH1/MNAT1 (P51948 whole entry partner): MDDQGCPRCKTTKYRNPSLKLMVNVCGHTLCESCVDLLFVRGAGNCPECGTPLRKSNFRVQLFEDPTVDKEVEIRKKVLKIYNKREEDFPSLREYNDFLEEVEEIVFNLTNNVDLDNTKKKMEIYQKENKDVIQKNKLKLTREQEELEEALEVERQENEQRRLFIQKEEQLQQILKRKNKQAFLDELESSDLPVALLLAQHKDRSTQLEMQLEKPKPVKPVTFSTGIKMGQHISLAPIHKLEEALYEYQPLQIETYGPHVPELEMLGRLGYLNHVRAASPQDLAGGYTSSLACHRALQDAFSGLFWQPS
T1 sequence (P50613 whole entry): as the sequence (P50613 whole entry) above
T1 sequence (P51946 whole entry partner): as the sequence (P51946 whole entry partner) above

Turning to `CC(C)(O)Cn1cc(-c2nc(Nc3ccc(S(N)(=O)=O)cc3F)ncc2C(F)(F)F)cn1` [BLU2256], the “pharmacokinetics compared with BLU1851” value in series [1] was “superior pharmacokinetics”. Further, the half-inhibitory concentration (IC50) in series [2] is 4420 nM; in series [3], 1280 nM; in series [5], over 6670 nM; in series [6] it was 82.5 nM. Moreover, the tumor growth inhibition entry is listed as “sub-efficacious with minor tumor growth inhibition” in series [4] (3 mg/kg QD PO); “efficacious dose, inducing tumor stasis” in series [4] (5 mg/kg BID PO); “dose-dependent tumor growth inhibition” in series [4] (dose titration, PO QD for 3 weeks). Besides, in series [4] (dose titration, PO), the body weight result was “without a change in body weight”. Besides, the “inhibition of RB1 phosphorylation in tumors” value in series [4] (on-target activity) is “dose and time-dependent”. The “Kinome S (10)” value in series [7] is 0.040.

A word on the IC50: it is the concentration that gives 50% inhibition.

These data come from paper PMC10373114, “CDK2 regulates collapsed replication fork repair in CCNE1-amplified ovarian cancer cells via homologous recombination” (NAR Cancer, 2023).
